This is an account of results in patent US20080152694A1, “Devices, Systems and Methods for Ophthalmic Drug Delivery” (priority 2006, published 2008).

The structures appear in SMILES notation. Values after ≈ are worked out from the molar mass of the structure shown. Where only a bound is given, the exact number is not on record here.

The nature of data set [1]: Water solubility of gacyclidine forms. The class given is physicochemical. From the text:
(§1) An advantage of using solid drug in an implanted device is, in at least some embodiments, the ability to store drug in the device using a smaller volume than might be required if a premixed (or other liquid) form of the drug were used. In some cases, this smaller volume enables implantation of a device containing enough drug to provide (when combined with an appropriate vehicle source) substantially continuous long term therapy. This long term therapy can be over a period of days, weeks, or months. In some cases, long term therapy may extend over several years. One example of a basic crystalline or solid amorphous drug suitable for use in methods according to some embodiments is gacyclidine. For example, it is estimated that 18 mg of solid gacyclidine eroded with an appropriate vehicle will deliver 100 μM drug over 4 years at a flow rate of 20 microliters per hour or less. […] Dissolution of the basic form of gacyclidine in water requires the presence of an acid (e.g., hydrochloric acid or lactic acid) to convert the basic form to the water-soluble acidic form. The concentration of gacyclidine in solution will therefore depend on the amount of acid available to convert the basic form to the acid form. […]

Data set [2] is described as follows: Stability of gacyclidine forms in the presence of water. Format: physicochemical. Conditions: body temperature / in the presence of water.
Description: as §1

Data set [3] in a line: Dissolution of gacyclidine base pellets in a continuous flow reactor, eluted with Ringer's solution containing hydrochloric acid. The class given is physicochemical. The following applies: for pH of the eluted drug solution: 20 μL/hr, room temperature (23±2° C.). As for the experimental part:
A drug chamber similar to the one illustrated in FIG. 5 was loaded with 11 pellets of gacyclidine base having a combined mass of 18 mg. This drug-loaded chamber was eluted at a flow rate of 20 μL/hr at room temperature (23±2° C.) using a MiniMed 508 syringe pump (available from Medtronics MiniMed of Northridge, Calif.). The syringe was loaded with 3 mL of Ringer's solution containing 0.05 to 3 mM hydrochloric acid. The eluted volume was collected in PTFE tubing attached to the pump drug capsule assembly, after a 3-D antibacterial filter. The pH of this solution was determined by use of a pH meter equipped with a Calomel electrode. Drug concentration was determined by HPLC.
The highest pH of the eluted drug solution (5.9) was obtained at 0.05 mM hydrochloric acid, and the lowest pH of the eluted drug solution (5.6) was obtained at 3 mM hydrochloric acid. These pH values indicate quantitative conversion of the hydrochloric acid to the drug salt and are consistent with the pH expected for solutions of the hydrochloride salt.

Data set [4] is classed as physicochemical. Conditions: solid pellets exposed to a continuous stream of vehicle such as Ringer's solution. The method, then:
Triamcinolone acetonide is commercially available as a crystalline solid with very low water solubility. If solid pellets of triamcinolone acetonide are exposed to a continuous stream of a vehicle, such as Ringer's solution, the expected concentration of extracted triamcinolone acetonide in solution should be 40 μM or less. A higher concentration of triamcinolone acetonide can be solubilized by including an amphipathic molecule in the vehicle. Such a pharmaceutically acceptable amphipathic molecule would be polysorbate 80 (e.g., TWEEN 80®). The concentration of triamcinolone acetonide solubilized can be increased above its water solubility, 40 μM, by adding the required amount of amphipathic molecule to the vehicle that will support the desired drug concentration. The invention is not limited to methods implemented through use of triamcinolone acetonide, Ringer's solution or polysorbate 80. Any sparingly soluble drug, pharmaceutically acceptable vehicle and pharmaceutically acceptable amphipathic molecule can be used.

The conditions of data set [5]: cited from earlier work.

As for `CC1CCCCC1(c1cccs1)N1CCCCC1` (stereo not shown) [gacyclidine], in data set [1], the “water solubility (in words)” value is on record as “sparingly soluble in water”. In addition, the “stability (in words)” value in data set [2] is recorded as “much more stable than its acidic form”. For the same compound, the “correlation in gacyclidine concentration per hydrochloric acid concentration used for elution” value in data set [3] (0.05 to 3 mM hydrochloric acid in Ringer's solution, drug concentration by HPLC, FIG. 27) is on record as 0.976±0.049. Also, the “pH of the eluted drug solution” value in data set [3] (Ringer's solution with 0.05 mM hydrochloric acid, highest pH) amounted to 5.9; in data set [3] (Ringer's solution with 3 mM hydrochloric acid, lowest pH), 5.6. In data set [3] (linear fit of eluted gacyclidine concentration vs hydrochloric acid concentration, FIG. 27), the “intercept at zero concentration of hydrochloric acid (gacyclidine concentration)” value is 0.0014 ± 0.0061 mM.

For the compound `C[C@H]1CCCC[C@@]1(c1cccs1)N1CCCCC1.Cl` [hydrochloride salt of gacyclidine, gacyclidine hydrochloride], the “water solubility (in words)” value in data set [1] is recorded as “highly water soluble”. In data set [2], the “stability (in words)” value is recorded as “unstable at body temperature”.

With `CC1(C)O[C@@H]2C[C@H]3[C@@H]4CCC5=CC(=O)C=C[C@]5(C)[C@@]4(F)[C@@H](O)C[C@]3(C)[C@]2(C(=O)CO)O1` [triamcinolone acetonide], the “expected concentration of extracted triamcinolone acetonide in solution” value in data set [4] was not above 40 µM. The water solubility in data set [5] is 40 µM (≈ 17.4 µg/mL).
